The results in this text go back to patent publication US10584369B2, “Cell-based methods for measuring activity of a protein inhibitor” (priority 2013, dated 2020).

The target in one experiment is T1, wild-type human CDK3 (Homo sapiens, UniProt Q00526).
T1 construct: Full-length cDNAs of wild-type human CDK3; expressed in transfected cells; host or cells: MDA-MB-157 breast carcinoma cells, lentiviral vector pHIV-dTomato
The experiment can be described thus: Cell-based assay for CDK3 inhibition: fraction of Tomato+ MDA-MB-157 cells infected with wild-type CDK3-expressing lentivirus.

The next experiment has as its target T2, wild-type human CDK2 (Homo sapiens, UniProt P24941).
T2 construct: Full-length cDNAs of wild-type human CDK2 conjugated with a HA tag; expressed in transfected cells; host or cells: MDA-MB-157 breast carcinoma cells, lentiviral vector pHIV-dTomato
The experiment can be described thus: Cell-based assay for CDK2 inhibition: fraction of Tomato+ MDA-MB-157 cells infected with wild-type CDK2-expressing lentivirus.

Procedure for wild-type human CDK2: MDA-MB-157 cells were cultured in RPMI with 10% FBS+PS 1X and Glu 1X.
In this experiment, MDA-MB-157 cells were plated at 5×10^5 cells per P100 plate. Cells were infected with 5 ml of media supernatant containing the wild-type of both CDK3 and CDK2 lentivirus, with 1 × polybrene solution. 24 hrs post-infection, the media were changed to virus-free polybrene-free media. 48 hrs post-infection, cells were replated into 24-well plates, at 25,000 cells per well. […] On day 5 after plating, the cells were harvested, centrifuged, suspended in RPMI and aliquoted at 200 μl per well into 96-well plates. 4′,6-diamidino-2-phenylindole (DAPI) was added to the final concentration of 1 μg/ml and the samples were analyzed for DAPI and Tomato fluorescence using the flow cytometer.
Procedure for wild-type human CDK3: MDA-MB-157 cells were cultured in RPMI with 10% FBS+PS 1× and Glu 1×.
In the experiment shown in FIG. 2, MDA-MB-157 cells were plated at 10^5 cells per well of a 6-well plate and infected with 1 ml of lentiviral stocks expressing wild-type CDK3 or E195D CDK3 mutant, with 1× polybrene solution. 24 hrs post-infection, the media were changed to virus-free polybrene-free media. 8 days post-infection (FIG. 2) or 23 days post-infection (FIG. 2), the samples were immediately analyzed for Tomato (red fluorescent marker carried in the vector) fluorescence using Becton-Dickinson LSRII flow cytometer. The fraction of the infected cells was defined as the percentage of Tomato+cells.
In this experiment, MDA-MB-157 cells were plated at 5×10^5 cells per P100 plate. Cells were infected with 5 ml of media supernatant containing the wild-type CDK3 lentivirus, with 1× polybrene solution. 24 hrs post-infection, the media were changed to virus-free polybrene-free media. 48 hrs post-infection, cells were replated into 24-well plates, at 25,000 cells per well. The culture media (1 ml volume) in each well contained the CDK3 inhibitor SNX9-1-20 at 2, 1.75, 1.5, 1.25, 1, 0.9, 0.75, 0.5, 0.35, 0.2 and 0 μM (DMSO 0.1%), in duplicates. […] 4′,6-diamidino-2-phenylindole (DAPI) was added to the final concentration of 1 μg/ml and the samples were analyzed for DAPI and Tomato fluorescence using the flow cytometer.

Regarding `CC(C)[C@H](CO)Nc1nc(Nc2cccc(Cl)c2)c2ncn(C(C)C)c2n1` [Purvalanol-A, Purvalanol A], the “fraction of infected (Tomato+) cells, wild-type CDK3 lentivirus” value at wild-type human CDK3 (1.6 μM inhibitor, day 5 after plating, Example 2 (without inhibitor: 48.85% SNX9-1-20 experiment, 14.8% Purvalanol-A experiment)) is listed as 66.5%. Also, the EC50 was 600 nM on wild-type human CDK3 (Example 2, FIG. 4 and FIG. 5, day 5, read-out: concentration producing half-maximal effect on the increase in the fraction of cells infected with the wild-type CDK3 lentivirus); 200 nM on wild-type human CDK2 (Example 2, FIG. 5, day 5, read-out: concentration producing half-maximal effect on the increase in the fraction of infected cells (printed: wild-type CDK3 lentivirus; follows the CDK2 result)). Moreover, the “fraction of wild-type CDK2 infected (Tomato+) cells” value at wild-type human CDK2 (1.6 μM inhibitor, day 5 after plating, 25.5% in the absence of inhibitor, FIG. 5) was found to be 65.25%.
